Results on 2 molecules are retold here after patent US20170095573A1, “METHODS AND COMPOSITIONS FOR TREATING ALLERGY AND INFLAMMATORY DISEASES” (Baylor Research Institute, priority 2014, published 2017).

The test system of assay [1] is dendritic cells and CD4+ T cells; allergic patient PBMCs. The assay can be described thus: Th2 responses after curdlan activation of DCs / allergic patient PBMCs. It counts as cell-based, human.
Assay [2] deals with naïve CD4+ T cells co-cultured with TSLP-activated mDCs. Description: TSLP-activated mDC-induced CD4+ T cell responses (co-culture with naive CD4+ T cells, cytokine staining / supernatant). The settings on record: 20 ug/ml, naïve CD4+ T cells 7 days, PMA/ionomycin 6 h, intracellular staining. It counts as cell-based, human. The method, then: (FIG. 10A) Intracellular cytokine levels were analyzed by intracellular staining in cells stimulated with PMA/Ionomycin for 6 hours and with brefeldinA for 4 hrs. (FIG. 10B) Cell supernatant cytokine levels were measured by stimulating the cells with αCD3/CD28 beads for 48 hrs.
It was next tested whether anti-Dectin-1-Pam3 conjugate can indeed suppress TSLP-activated mDC-induced Th2 type T cell responses. 5×10^3 mDCs were cultured overnight with TSLP in the presence or absence of the same concentration (20 ug/ml) of anti-Dectin-1-Pam3 conjugate, combination of anti-Dectin-1 and Pam3, or Pam 3. 2×10^5 purified naïve CD4+ T cells were then added into the culture. After 7 days, T cells were stimulated for 6 h with PMA/ionomycin in the presence of brefeldin A. Cells were then stained for intracellular expression of IL-13 (Th2 type cytokine) and IFNγ (Th2 type cytokine).
Next, the Th2-type T cells were tested. mDCs were first primed with 40 ng/mL TSLP and either αdectin-1 or αDectin-1-pam3 at 20 ug/mL After 24 hrs, naïve CD4+ T cells are added to the mDCs and cultured for an additional 6 days. Intracellular cytokine levels were analyzed by intracellular staining in cells stimulated with PMA/Ionomycin for 6 hours and with brefeldinA for 4 hrs (FIG. 10A). Cell supernatant cytokine levels were measured by stimulating the cells with αCD3/CD28 beads for 48 hrs (FIG. 10B).

For the molecule curdlan, the “Antigen-specific TH2 responses” value in assay [1] (Flu HA1 antigen, DCs and CD4+ T cells, restimulation with HA-1-derived peptides) is “decreased antigen-specific TH2 responses”. Also, the “Th2-type T cell responses” value in assay [1] (allergic patient PBMCs) is recorded as “significantly down-regulated Th2-type T cell responses”. Besides, the “Percentage of IL-13+ cells” value in assay [1] (restimulation with PMA/Ionomycin, immunostaining) is “decreased significantly”. The “Total TH2 responses” value in assay [1] (restimulation with PMA/Ionomycin, immunostaining for IL-13 and IL-5) was “downregulates total TH2 responses”.
With `CCCCCCCCCCCCCCCC(=O)N[C@@H](CSCC(COC(=O)CCCCCCCCCCCCCCC)OC(=O)CCCCCCCCCCCCCCC)C(=O)N[C@@H](CO)C(=O)N[C@@H](CCCCN)C(=O)N[C@@H](CCCCN)C(=O)N[C@@H](CCCCN)C(=O)N[C@@H](CCCCN)C(=O)O` (mixture of isomers) [Pam3, N-Palmitoyl-S-[2,3-bis(palmitoyloxy)-(2RS)-propyl]-[R]-cysteinyl-[S]-seryl-[S]-lysyl-[S]-lysyl-[S]-lysyl-[S]-lysine], the “IL-13+CD4+ T cell responses” value in assay [2] is listed as 3.47%.
